{"source": "patent US9650339B2", "about": "“Inhibitors of histone demethylases” (Gilead Sciences, Inc., priority 2013, dated 2017)", "key": {"KDM4C": {"biological_target": "T1, KDM4C (Homo sapiens, UniProt Q9H3R0)", "T1 construct": "Full length; host or cells: U2OS", "T1 sequence (Q9H3R0 1-1056)": "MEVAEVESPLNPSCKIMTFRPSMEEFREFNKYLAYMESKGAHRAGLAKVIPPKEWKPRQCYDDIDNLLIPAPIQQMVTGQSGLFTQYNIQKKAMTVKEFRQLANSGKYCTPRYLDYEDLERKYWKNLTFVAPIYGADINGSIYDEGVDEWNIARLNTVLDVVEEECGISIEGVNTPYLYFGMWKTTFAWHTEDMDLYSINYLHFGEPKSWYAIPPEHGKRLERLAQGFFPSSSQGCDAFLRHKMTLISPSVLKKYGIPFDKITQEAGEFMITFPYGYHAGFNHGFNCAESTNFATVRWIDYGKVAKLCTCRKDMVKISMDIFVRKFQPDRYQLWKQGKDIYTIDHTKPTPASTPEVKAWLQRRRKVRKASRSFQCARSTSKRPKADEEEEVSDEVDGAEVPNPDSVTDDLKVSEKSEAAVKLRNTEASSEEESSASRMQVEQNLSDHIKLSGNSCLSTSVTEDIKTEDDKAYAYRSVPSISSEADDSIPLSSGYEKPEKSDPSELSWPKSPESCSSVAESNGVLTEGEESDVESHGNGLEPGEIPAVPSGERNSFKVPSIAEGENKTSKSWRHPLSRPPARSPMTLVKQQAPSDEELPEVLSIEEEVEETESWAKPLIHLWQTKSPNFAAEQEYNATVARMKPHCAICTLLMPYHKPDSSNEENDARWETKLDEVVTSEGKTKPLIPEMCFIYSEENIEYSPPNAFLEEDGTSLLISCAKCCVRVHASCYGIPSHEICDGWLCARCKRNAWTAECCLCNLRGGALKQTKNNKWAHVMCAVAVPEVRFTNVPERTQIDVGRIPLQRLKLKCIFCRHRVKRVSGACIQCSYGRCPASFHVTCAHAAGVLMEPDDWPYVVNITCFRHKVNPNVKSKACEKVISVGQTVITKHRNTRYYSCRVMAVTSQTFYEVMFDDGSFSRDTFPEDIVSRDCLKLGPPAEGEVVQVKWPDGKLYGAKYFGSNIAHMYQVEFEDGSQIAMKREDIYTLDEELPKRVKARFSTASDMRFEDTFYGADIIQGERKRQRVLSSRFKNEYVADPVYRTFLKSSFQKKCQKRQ", "test": "Histone lysine demethylase immunofluorescence assay, U2OS cells transfected with KDM4C", "assay_type": "cell-based", "conditions": "U2OS cells transfected with pCMVHA KDM4C; mark detected H3K9me3; 20 hours", "description": "U2OS cells were seeded 24 hours before transfection. Transfection was performed with Fugene HD transfection reagent as recommended by the manufacturer. 6 hours after transfection, the cells were harvested and seeded into multi well plates into media containing compound. The media used was DMEM containing 10% FBS and pen/strep. 20 hours after incubation of cells with compounds, the cells were washed in PBS, harvested by fixation with formaldehyde 4% aqueous solution, and washed in PBS. Subsequently, the cells were permeabilized in PBS with 0.2% Triton X-100 for. Blocking was performed in PBS with 0.2% Triton X-100 and 5% FBS. The cells were incubated with primary antibodies in blocking solution over night at 4° C. The primary antibodies used in the assays were HA.11 (Covance, MMS-101P) and the antibody detecting the mark specified in the table below. After incubation with primary antibodies, the cells were washed with PBS, incubated with secondary antibodies (Alexa fluor 594 goat anti rabbit IgG, Invitrogen, A11012; Alexa flour 488 donkey anti mouse IgG, Invitrogen, A21202) and Hoechst, (Sigma, 33342) in blocking solution, and washed again with PBS. Finally, PBS was added and high throughput imaging and analysis were performed by an IN Cell Analyzer 1000 (GE Healthcare). The robot software analyzed individual cells and divided these into HA+ (transfected cells) and HA− (non-transfected cells). The IC50 values were based on an average measure of the staining of the mark specified in the table below in the transfected cells."}, "KDM4A (JMJD2A)": {"biological_target": "T2, KDM4A (JMJD2A) (Homo sapiens, UniProt O75164)", "T2 construct": "1-350; purchased BPS Bioscience, US; host or cells: E. coli", "T2 sequence (O75164 1-350)": "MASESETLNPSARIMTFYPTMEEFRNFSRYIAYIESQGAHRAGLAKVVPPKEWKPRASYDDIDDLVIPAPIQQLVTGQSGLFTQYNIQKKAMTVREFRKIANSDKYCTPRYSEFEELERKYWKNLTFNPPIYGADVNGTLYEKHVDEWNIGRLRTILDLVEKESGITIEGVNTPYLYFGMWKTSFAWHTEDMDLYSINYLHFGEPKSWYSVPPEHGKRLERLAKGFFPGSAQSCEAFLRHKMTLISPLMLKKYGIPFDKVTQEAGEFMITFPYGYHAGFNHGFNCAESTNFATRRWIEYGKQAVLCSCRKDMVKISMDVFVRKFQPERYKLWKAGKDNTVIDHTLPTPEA", "test": "Histone lysine demethylase AlphaLISA assay, KDM4A", "assay_type": "biochemical", "conditions": "read-out: KDM4A HDME Inhibition IC50", "description": "Assays are performed analogously to the protocol described by PerkinElmer (Roy et al. PerkinElmer Technical Note: AlphaLISA #12, April 2011)\nEnzymes are dissolved in enzyme buffer and incubated for 10 min before being added to 3% DMSO solutions of compounds in enzyme buffer. Incubated for another 10 minutes, before substrate solution is added and the reaction mixture is incubated at room temperature. 10 μL acceptor beads, suspended in Epigenetic Buffer (Perkin Elmer AL008) from stock, are added and the suspension is incubated in the dark at room temperature, before a suspension of streptavidin donor beads (Perkin Elmer 6760002) in Epigenetic Buffer is added. After incubation at room temperature in the dark the plates are read.\nBK9M3: Biotin-ARTKQTAR(KMe3)STGGKAPRKQ-NH2 (Caslo, Denmark) […]\nSubstrate Solution: Substrate, 25 μM L-Asc, and 10 μM α-KG in Buffer A."}}}
{"smiles": "CCN(CC)CCCCNCc1cc(CNC(=O)C(F)(F)F)ccn1", "note": "[Compound 1, N-{[2-({[4-(diethylamino)butyl]-amino}methyl)pyridin-4-yl]methyl}-2,2,2-trifluoroacetamide]", "values": [{"measurement": "IC50", "setting": "KDM4C", "result": "250 to 2500", "unit": "nM"}, {"measurement": "IC50", "setting": "KDM4A (JMJD2A)", "result": "250 to 2500", "unit": "nM"}]}
{"smiles": "CN(C)CCCNCc1cc(CN)ccn1", "note": "[Compound 3, [2-({[3-(dimethylamino)propyl]-amino}methyl)pyridin-4-yl]methanamine]", "values": [{"measurement": "IC50", "setting": "KDM4C", "result": "> 2500", "unit": "nM"}, {"measurement": "IC50", "setting": "KDM4A (JMJD2A)", "result": "< 250", "unit": "nM"}]}
{"smiles": "c1ccc(CN2CCC[C@H]2CNCc2cc(CNCC3CC3)ccn2)cc1", "note": "[Compound 16, {[(2S)-1-benzylpyrrolidin-2-yl]methyl}[(4-{[(cyclopropylmethyl)-amino]methyl}pyridin-2-yl)methyl]amine]", "values": [{"measurement": "IC50", "setting": "KDM4A (JMJD2A)", "result": "> 2500", "unit": "nM"}]}
{"smiles": "CCN(CCN(C)C)C(=O)CNCc1cc(CNC(=O)C(F)(F)F)ccn1", "note": "[Compound 25, N-[(2-{[({[2-(dimethylamino)ethyl]-(ethyl)carbamoyl}-methyl)amino]methyl}-pyrtdin-4-yl)methyl]-2,2,2-trifluoroacetamide]", "values": [{"measurement": "IC50", "setting": "KDM4A (JMJD2A)", "result": "> 2500", "unit": "nM"}]}
{"smiles": "C(=N\\C1CC1)/c1ccnc(CNCCCCN2CCC2)c1", "note": "[Compound 44, N-{[2-({[4-(azetidin-1-yl)butyl]amino}methyl)-pyridin-4-yl]methylidene}-cyclopropanamine]", "values": [{"measurement": "IC50", "setting": "KDM4A (JMJD2A)", "result": "> 2500", "unit": "nM"}]}
{"smiles": "CCN(CC)C(=O)CNCc1cc(/C=N/CCC2CCCCC2)ccn1", "note": "[Compound 57, 2-[({4-[[(2-cyclohexylethyl)imino]-methyl]pyridin-2-yl}methyl)amino]-N,N-diethylacetamide]", "values": [{"measurement": "IC50", "setting": "KDM4A (JMJD2A)", "result": "250 to 2500", "unit": "nM"}]}
{"smiles": "CCCCCCCC/N=C/c1ccnc(CNCC(=O)N(CC)CC)c1", "note": "[Compound 58, N,N-diethyl-2-[({4-[(octylimino)methyl]-pyridin-2-yl}methyl)amino]-acetamide]", "values": [{"measurement": "IC50", "setting": "KDM4A (JMJD2A)", "result": "> 2500", "unit": "nM"}]}
{"smiles": "CCN(CC)CCCCNCc1cc(/C=N/CCOC)ccn1", "note": "[Compound 60, [4-(diethylamino)butyl]-({4-[[(2-methoxyethyl)imino]-methyl]pyridin-2-yl}methyl)amine]", "values": [{"measurement": "IC50", "setting": "KDM4A (JMJD2A)", "result": "< 250", "unit": "nM"}]}
{"smiles": "CN(Cc1ccccc1F)C(=O)CNCc1cc(/C=N/CCO)ccn1", "note": "[Compound 92, N-[(2-fluorophenyl)methyl]-2-[({4-[[(2-hydroxyethyl)imino]-methyl]pyridin-2-yl}methyl)amino]-N-methylacetamide]", "values": [{"measurement": "IC50", "setting": "KDM4C", "result": "> 2500", "unit": "nM"}]}
{"smiles": "OCC/N=C/c1ccnc(CNCCc2ccccc2OCc2ccccc2)c1", "note": "[Compound 93, 2-[({2-[({2-[2-(benzyloxy)phenyl]-ethyl}amino)methyl]-pyridin-4-yl}methylidene)-amino]ethan-1-ol]", "values": [{"measurement": "IC50", "setting": "KDM4C", "result": "> 2500", "unit": "nM"}]}
{"smiles": "CCN(CCC#N)C(=O)CNCc1cc(/C=N/CCO)ccn1", "note": "[Compound 94, N-(2-cyanoethyl)-N-ethyl-2-[({4-[[(2-hydroxyethyl)imino]-methyl]pyridin-2-yl}methyl)amino]-acetamide]", "values": [{"measurement": "IC50", "setting": "KDM4C", "result": "> 2500", "unit": "nM"}]}
{"smiles": "CC(C)C[C@H](NCc1cc(/C=N/CCO)ccn1)C(=O)N1CCCCC1", "note": "[Compound 95, (2S)-2-[({4-[[(2-hydroxyethyl)imino]-methyl]pyridin-2-yl}methyl)amino]-4-methyl-1-(piperidin-1-yl)pentan-1-one]", "values": [{"measurement": "IC50", "setting": "KDM4C", "result": "> 2500", "unit": "nM"}]}
{"smiles": "CN1CCC(CNCc2cc(C=O)ccn2)CC1", "note": "[Compound 100, 2-({[(1-methyl-piperidin-4-yl)methyl]amino}-methyl)pyridine-4-carbaldehyde]", "values": [{"measurement": "IC50", "setting": "KDM4C", "result": "250 to 2500", "unit": "nM"}]}
{"smiles": "CCN1CCCC1CNC(=O)CNCc1cc(C=O)ccn1", "note": "(stereo not shown) [Compound 104, N-[(1-ethylpyrrolidin-2-yl)methyl]-2-{[(4-formylpyridin-2-yl)methyl]amino}-acetamide]", "values": [{"measurement": "IC50", "setting": "KDM4C", "result": "> 2500", "unit": "nM"}]}
{"smiles": "O=Cc1ccnc(CNCCCN2CCCC2)c1", "note": "[Compound 111, 2-({[3-(pyrrolidin-1-yl)propyl]amino}-methyl)pyridine-4-carbaldehyde]", "values": [{"measurement": "IC50", "setting": "KDM4C", "result": "> 2500", "unit": "nM"}]}
{"smiles": "CCN(CC(C)(C)N(C)C)C(=O)CNCc1cc(C=O)ccn1", "note": "[Compound 118, N-[2-(dimethylamino)-2-methylpropyl]-N-ethyl-2-{[(4-formylpyridin-2-yl)methyl]amino}-acetamide]", "values": [{"measurement": "IC50", "setting": "KDM4C", "result": "250 to 2500", "unit": "nM"}]}
{"smiles": "CN(CC(=O)N1CCCCC1)Cc1cc(C=O)ccn1", "note": "[Compound 120, 2-({methyl[2-oxo-2-(piperidin-1-yl)ethyl]amino}-methyl)pyridine-4-carbaldehyde]", "values": [{"measurement": "IC50", "setting": "KDM4C", "result": "> 2500", "unit": "nM"}]}
